Read-outs that look alike come from different tables or passages of the source.
Tests used:
[1] = target: T1, PDGF-Ra (Homo sapiens, UniProt P16234); assay: Inhibitory activity against PDGF-Ra phosphorylation by PDGF-AA stimulation using G292; type: cell-based; conditions: for IC50: > means inhibition at indicated concentration not more than 50%, < and << not less than 50%, read-out: PDGF (E) IC50; for inhibition at 0.1 µM: G292, at 100 nM, read-out: PDGF (E) inhibition (%) at 100 nM
T1 construct: host or cells: G-292 human osteosarcoma cells
In short: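 In G-292 osteosarcoma cells kept overnight in 0.1% FBS, compound exposure (1 hr, 37 °C) preceded PDGF-AA stimulation at 50 ng/ml for 5 min; receptor phosphotyrosine was then detected by PY-20 capture ELISA.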

[2] = target: T2, c-kit (Homo sapiens, UniProt P10721); assay: Inhibitory activity against c-kit autophosphorylation (MO7e cells, h-SCF); type: cell-based; conditions: for IC50: MO7e cells, read-out: c-kit IC50; for inhibition at 1 µM: Mo7e, at 1000 nM
T2 construct: MO7e (human megakaryocytic leukemia cell line) which had been arrested for 20 hr; endogenous in cells; host or cells: MO7e human megakaryocytic leukemia cell line
In short: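 MO7e human megakaryocytic leukemia cells, arrested 20 hr, treated with compound 1 hr, then stimulated with 50 ng/ml h-SCF for 5 min and lysed. Lysates captured on immobilized anti-phosphotyrosine antibody, detected with anti-c-kit primary and HRP secondary antibody; absorbance at 450 nm.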

[3] = figure within parentheses in −( ) or >1000( )
[4] = figure within parentheses in >100( )

T1 sequence (P16234 24-1089): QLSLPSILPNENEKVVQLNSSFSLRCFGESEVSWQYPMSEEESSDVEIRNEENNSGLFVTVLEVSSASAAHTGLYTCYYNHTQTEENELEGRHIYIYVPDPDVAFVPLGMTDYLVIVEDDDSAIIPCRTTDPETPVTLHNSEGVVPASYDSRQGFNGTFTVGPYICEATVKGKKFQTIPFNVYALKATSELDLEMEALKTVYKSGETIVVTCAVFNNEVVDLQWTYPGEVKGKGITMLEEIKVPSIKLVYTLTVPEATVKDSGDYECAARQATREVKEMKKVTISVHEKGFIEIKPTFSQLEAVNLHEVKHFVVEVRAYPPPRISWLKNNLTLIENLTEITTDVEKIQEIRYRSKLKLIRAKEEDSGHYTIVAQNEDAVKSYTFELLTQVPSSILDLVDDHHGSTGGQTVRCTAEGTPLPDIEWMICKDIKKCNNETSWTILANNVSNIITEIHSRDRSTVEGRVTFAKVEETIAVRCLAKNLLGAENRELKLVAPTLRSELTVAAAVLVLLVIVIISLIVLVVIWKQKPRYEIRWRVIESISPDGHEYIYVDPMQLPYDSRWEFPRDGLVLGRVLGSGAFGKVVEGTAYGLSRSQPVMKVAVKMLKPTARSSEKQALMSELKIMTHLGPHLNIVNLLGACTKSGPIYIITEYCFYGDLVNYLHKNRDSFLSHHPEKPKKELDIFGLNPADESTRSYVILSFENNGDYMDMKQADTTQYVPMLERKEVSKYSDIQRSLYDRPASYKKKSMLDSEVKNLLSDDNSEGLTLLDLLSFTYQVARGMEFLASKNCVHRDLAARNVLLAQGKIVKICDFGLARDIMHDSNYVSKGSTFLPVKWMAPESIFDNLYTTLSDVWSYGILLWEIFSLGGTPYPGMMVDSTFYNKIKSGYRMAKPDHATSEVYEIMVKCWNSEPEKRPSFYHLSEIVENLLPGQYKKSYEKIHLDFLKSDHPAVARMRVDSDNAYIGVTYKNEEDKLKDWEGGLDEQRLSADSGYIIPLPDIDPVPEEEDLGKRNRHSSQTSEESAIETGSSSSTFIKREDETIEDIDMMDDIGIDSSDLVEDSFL
T2 sequence (P10721 26-976): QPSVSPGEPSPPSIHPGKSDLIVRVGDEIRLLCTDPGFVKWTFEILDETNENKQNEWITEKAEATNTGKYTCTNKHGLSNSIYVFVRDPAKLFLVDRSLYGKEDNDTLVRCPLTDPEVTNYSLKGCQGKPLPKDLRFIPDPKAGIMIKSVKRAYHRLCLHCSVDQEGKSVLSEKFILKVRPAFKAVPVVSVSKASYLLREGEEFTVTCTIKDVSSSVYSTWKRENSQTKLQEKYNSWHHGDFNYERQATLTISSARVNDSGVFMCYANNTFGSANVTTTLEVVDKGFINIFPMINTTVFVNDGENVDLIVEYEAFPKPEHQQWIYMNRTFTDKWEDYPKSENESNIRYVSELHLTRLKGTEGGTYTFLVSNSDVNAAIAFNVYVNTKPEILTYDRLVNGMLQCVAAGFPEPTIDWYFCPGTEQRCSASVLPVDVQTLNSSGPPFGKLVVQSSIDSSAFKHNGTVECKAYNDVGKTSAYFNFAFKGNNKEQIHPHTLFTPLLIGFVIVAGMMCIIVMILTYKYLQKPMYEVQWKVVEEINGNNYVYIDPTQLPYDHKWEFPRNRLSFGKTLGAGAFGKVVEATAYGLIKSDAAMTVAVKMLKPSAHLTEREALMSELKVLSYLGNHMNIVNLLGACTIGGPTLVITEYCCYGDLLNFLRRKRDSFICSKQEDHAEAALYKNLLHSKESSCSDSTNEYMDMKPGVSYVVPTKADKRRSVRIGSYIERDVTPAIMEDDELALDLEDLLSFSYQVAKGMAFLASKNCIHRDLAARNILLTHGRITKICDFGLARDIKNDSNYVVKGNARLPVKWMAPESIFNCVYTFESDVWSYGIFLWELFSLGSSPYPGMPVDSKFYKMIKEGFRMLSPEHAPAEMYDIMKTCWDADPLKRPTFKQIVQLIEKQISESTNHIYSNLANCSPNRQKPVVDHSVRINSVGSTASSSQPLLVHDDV

Row | Compound | IC50 [1] | IC50 ([1]; Pharmacological Test Example 1) | IC50 ([2]; h-SCF 50 ng/ml) | other results
1 | COc1ccc(OCCCOc2ccc(Oc3ccnc4cc(OC)c(OC)cc34)cc2)cc1 [Example 794, 6,7-Dimethoxy-4-{4-[3-(4-methoxy-phenoxy)propoxy]phenoxy}quinoline] | 0.014 µM |  |  | IC50 ([2]; 50 ng/ml h-SCF): 0.192 µM
2 | COc1cc2nccc(Oc3ccc(NC(=O)OCCN4CCCCC4)cc3)c2cc1OC [Example 303, 2-Piperidinoethyl N-{4-[(6,7-dimethoxy-4-quinolyl)oxy]phenyl}carbamate] |  | 0.011 µM | 0.188 µM | 
3 | COc1cc2nccc(Oc3ccc(NC(=O)NCCN4CCCCC4)c(C)c3C)c2cc1OC [Example 675, N-{4-[(6,7-Dimethoxy-4-quinolyl)oxy]-2,3-dimethylphenyl}-N′-(2-piperidinoethyl)urea] | 0.046 µM |  |  | IC50 ([2]; 50 ng/ml h-SCF): 0.442 µM
4 | COc1cc2ncnc(Oc3ccc(N(C)C(=O)OC4CCCCC4)c(Cl)c3)c2cc1OC [Example 474, Cyclohexyl N-{2-chloro-4-[(6,7-dimethoxy-4-quinazolinyl)oxy]phenyl}-N-methylcarbamate] | 0.046 µM |  |  | inhibition at 1 µM [2, 3]: 6%
5 | COc1cc2nccc(Oc3ccc(NC(=S)NC(=O)N(C(C)C)C(C)C)cc3)c2cc1OC [Example 1043, N-{4-[(6,7-Dimethoxy-4-quinolyl)oxy]phenyl}-{[(diisopropylamino)carbonyl]amino}methanethioamide] | 0.027 µM |  |  | IC50 ([2]; h-SCF stimulation): 0.449 µM
6 | CCCCN(CCCC)CCNC(=O)Nc1ccc(Oc2ncnc3cc(OC)c(OC)cc23)cc1OC [Example 688, N-[2-(Dibutylamino)ethyl]-N′-{4-[(6,7-dimethoxy-4-quinazolinyl)oxy]-2-methoxyphenyl}urea] | 0.034 µM |  |  | inhibition at 1 µM [2, 3]: 19%
7 | COc1ccc(OCCCOC(=O)Nc2cc(C)c(Oc3ccnc4cc(OC)c(OC)cc34)cc2C)cc1 [Example 44, 3-(4-Methoxyphenoxy)propyl N-{4-[(6,7-dimethoxy-4-quinolyl)oxy]-2,5-dimethylphenyl}carbamate] |  | 0.019 µM | 0.328 µM | 
8 | COc1cc2nccc(Oc3ccc(NC(=O)NCCN(C(C)C)C(C)C)cc3)c2cc1OC [Example 654, N-[2-(Diisopropylamino)ethyl]-N′-{4-[(6,7-dimethoxy-4-quinolyl)oxy]phenyl}urea] | 0.019 µM |  |  | IC50 ([2]; 50 ng/ml h-SCF): 0.698 µM
9 | COc1cc2nccc(Oc3ccc(NC(=O)OC(C)c4cccc(F)c4)c(C)c3C)c2cc1OC (stereo not shown) [Example 98, 1-(3-Fluorophenyl)ethyl N-{4-[(6,7-dimethoxy-4-quinolyl)oxy]-2,3-dimethylphenyl}carbamate] |  | < 0.01 µM | 0.152 µM | 
10 | COc1cc2nccc(Oc3ccc(NC(=S)NC(=O)COCc4ccccc4)c(F)c3)c2cc1OC [Example 1031, N-[2-(Benzyloxy)acetyl]-N′-{4-[(6,7-dimethoxy-4-quinolyl)oxy]-2-fluorophenyl}thiourea] | 0.01 µM |  |  | IC50 ([2]; h-SCF stimulation): 0.254 µM
11 | COc1cc2ncnc(Oc3ccc(NC(=S)NC(=O)CCc4ccc(C)cc4)cc3)c2cc1OC [Example 722, N-{4-[(6,7-Dimethoxy-4-quinazolinyl)oxy]phenyl}-N′-[3-(4-methylphenyl)propanoyl]thiourea] | < 0.01 µM |  |  | IC50 ([2]; 50 ng/ml h-SCF): 0.085 µM
12 | CCN(CC)CCNC(=O)Nc1ccc(Oc2ccnc3cc(OC)c(OC)cc23)c(Cl)c1 [Example 651, N-{3-Chloro-4-[(6,7-dimethoxy-4-quinolyl)oxy]phenyl}-N′-[2-(diethylamino)ethyl]urea] | 0.04 µM |  |  | IC50 ([2]; 50 ng/ml h-SCF): 0.808 µM
13 | COc1cc2ncnc(Oc3ccc(NC(=S)NC(=O)CCCc4ccccc4)cc3)c2cc1OC [Example 1139, N-{4-[(6,7-Dimethoxy-4-quinazolinyl)oxy]phenyl}-N′-(4-phenylbutanoyl)thiourea] | 0.012 µM |  |  | IC50 ([2]; h-SCF stimulation): 0.783 µM
14 | CCCOC(=O)Nc1cc(C)c(Oc2ccnc3cc(OC)c(OC)cc23)cc1C [Example 244, Propyl N-{4-[(6,7-dimethoxy-4-quinolyl)oxy]-2,5-dimethylphenyl}carbamate] |  | 0.027 µM | 0.069 µM | 
15 | COc1cc2nccc(Oc3ccc(NC(=O)OCCCOc4ccccc4F)cc3)c2cc1OC [Example 142, 3-(2-Fluorophenoxy)propyl N-{4-[(6,7-dimethoxy-4-quinolyl)oxy]phenyl}carbamate] |  | < 0.01 µM | < 0.03 µM | 
16 | COc1cc2ncnc(Oc3ccc(NC(=O)OCc4ccccc4C)c([N+](=O)[O-])c3)c2cc1OC [Example 505, 2-Methylbenzyl N-{4-[(6,7-dimethoxy-4-quinazolinyl)oxy]-2-nitrophenyl}carbamate] | 0.053 µM |  |  | inhibition at 1 µM [2, 3]: 25%
17 | COc1cc2nccc(Oc3ccc(NC(=O)NC4CCN(Cc5ccccc5)CC4)cc3F)c2cc1OC [Example 639, N-(1-Benzyl-4-piperidyl)-N′-{4-[(6,7-dimethoxy-4-quinolyl)oxy]-3-fluorophenyl}urea] | > 0.1 µM |  |  | inhibition at 0.1 µM [1, 4]: 29%; inhibition at 1 µM [2, 3]: 12%
18 | COc1cc2nccc(Oc3ccc(NC(=O)OCCCCCCN(C)C)cc3)c2cc1OC [Example 309, 6-(Dimethylamino)hexyl N-{4-[(6,7-dimethoxy-4-quinolyl)oxy]phenyl}carbamate] |  | 0.01 µM | 0.285 µM | 
19 | COc1cc2nccc(Oc3ccc(NC(=O)OCc4cccc(C)c4)c(C)c3C)c2cc1OC [Example 233, 3-Methylbenzyl N-{4-[(6,7-dimethoxy-4-quinolyl)oxy]-2,3-dimethylphenyl}carbamate] |  | 0.008 µM | 0.052 µM | 
20 | COc1cc2ncnc(Oc3ccc(NC(=O)NC4CCN(Cc5ccc(C(C)(C)C)cc5)C4)c([N+](=O)[O-])c3)c2cc1OC (stereo not shown) [Example 584, N-{1-[4-(Tert-butyl)benzyl]tetrahydro-1H-3-pyrrolyl}-N′-{4-[(6,7-dimethoxy-4-quinazolinyl)oxy]-2-nitrophenyl}urea] | > 0.1 µM |  |  | inhibition at 0.1 µM [1, 4]: 13%; inhibition at 1 µM [2, 3]: 13%
21 | COc1cc2nccc(Oc3ccc(NC(=O)OCC4CCCCCC4)c(C)c3C)c2cc1OC [Example 350, Cycloheptylmethyl N-{4-[(6,7-dimethoxy-4-quinolyl)oxy]-2,3-dimethylphenyl}carbamate] |  | < 0.01 µM | 0.238 µM | 
22 | COc1cc2nccc(Oc3ccc(NC(=O)NCCN4CCCC4)cc3)c2cc1OC [Example 618, N-{4-[(6,7-Dimethoxy-4-quinolyl)oxy]phenyl}-N′-(2-tetrahydro-1H-1-pyrrolylethyl)urea] | < 0.01 µM |  |  | IC50 ([2]; 50 ng/ml h-SCF): 0.948 µM
23 | COc1cc2nccc(Oc3ccc(NC(=O)OCCSc4cc(C)ccc4C)cc3)c2cc1OC [Example 165, 2-[(2,5-dimethylphenyl)sulfanyl]ethyl N-{4-[(6,7-dimethoxy-4-quinolyl)oxy]phenyl}carbamate] |  | 0.049 µM | 0.149 µM | 
24 | COc1cc2nccc(Oc3cc(C)c(NC(=O)OCc4ccc(C)cc4)cc3C)c2cc1OC [Example 255, 4-Methylbenzyl N-{4-[(6,7-dimethoxy-4-quinolyl)oxy]-2,5-dimethylphenyl}carbamate] |  | > 0.1 µM | 0.309 µM | inhibition at 0.1 µM ([1]; figure in parentheses in >100( )): 36%
25 | COc1cc2nccc(Oc3ccc(NC(=S)NCCCn4ccnc4)c(C)c3C)c2cc1OC [Example 543] | 0.054 µM |  |  | IC50 ([2]; 50 ng/ml h-SCF): 0.328 µM
26 | COc1cc2nccc(Oc3ccc(NC(=S)NC(=O)c4ccc(F)cc4F)c(Cl)c3)c2cc1OC [Example 1202, N-{2-Chloro-4-[(6,7-dimethoxy-4-quinolyl)oxy]phenyl}-N′-(2,4-difluorobenzoyl)thiourea] | 0.05 µM |  |  | inhibition at 1 µM ([2]; figure in parentheses in −( )): 15%

From patent publication US7135466B2 (Kirin Beer Kabushiki Kaisha, priority 1999, dated 2006)
